{"source": "patent US9950067B2", "about": "“Trans carotenoids, their synthesis, formulation and uses” (Diffusion Pharmaceuticals, LLC, priority 2005, dated 2018)", "key": {"[1]": {"conditions": "natural bipolar carotenoids, background; cited from earlier work"}, "[2]": {"assay": "Solubility in water and aqueous formulations", "format": "physicochemical", "method": "Formulation of TSC with Cyclodextrin-Mannitol • 1. Make up a solution containing equal-molar concentrations of the cyclodextrin and the TSC. Solutions containing over 20 mg TSC/ml of solution can be made this way. First, add the cyclodextrin to an injectable water, then add the TSC to that solution. • 2. Add d-mannitol, so that the final concentration is around 20 to 50 mg/ml of mannitol in solution. • 3. This solution can be added to isotonic saline in order to dilute it and still maintain the proper osmolality. Either add the solution to saline or add saline to the solution.\nFormulation of TSC with Mannitol/Acetic Acid • 1. Make up a 0.01 M acetic acid solution in distilled water. • 2. […] Add the 0.0005 M acetic acid solution, slowly, to TSC. […] Add d-mannitol to above solution at a concentration of 50 mg/ml in order to obtain the proper osmolality. The pH of this solution is around 8 to 8.5. It should be close to being an isotonic solution, and, as such, can be injected directly into the blood stream."}, "[3]": {"assay": "Intramuscular administration, absorption into the blood stream", "format": "in vivo, rats", "method": "TSC is not absorbed via an intramuscular route when simply dissolved in de-ionized water; however, the addition of a cyclodextrin (as in the formulated drug product) results in absorption into the blood stream. Small volumes (0.05 mL) were injected into each thigh muscle of rats with TSC formulated with 2-hydroxypropyl-β-cyclodextrin or γ-cyclodextrin and dissolved in water."}, "[4]": {"test_system": "HCT116 human colon carcinoma tumors", "assay": "Radiation sensitization of tumors grown on mice", "experimental": "There were six study groups of five mice per group (for a total of 30 mice) designated Study Groups 1 through 6. All mice in the study were injected intravenously with either a TSC dose or a saline control for five successive days. As shown below, Study Groups 1, 2 and 3 received TSC doses A, B and C, which corresponds to 0.07, 0.14 and 0.28 mg/kg respectively for the study B, and 1.35, 0.54 and 0.18 mg/kg respectively for the study A.\nGroup 4 was injected as a saline control. At 45 minutes post-injection on each of the five successive days, the tumors of Study Groups 1-4 received 2 Gy irradiation. Study Group 5 received TSC only and Study Group 6 received saline only, and neither Study Group 5 nor 6 received irradiation. Tumor volumes in all Study Groups were measured weekly for the earlier of 4 weeks or until the tumors reached 4 times the volume at the start of treatment."}, "[5]": {"assay": "Pulmonary administration, absorption into the blood stream", "format": "in vivo, rats", "method": "In this method, the rats were intubated and a small volume (0.1 mL usually) of the TSC solution was injected followed by two 3-mL puffs of air.\nAdditional studies have been done with pulmonary dosing in which the effect of the volume of liquid injected into the trachea as well as using TSC in its formulated drug product form were investigated. The formulated drug product contained 8% γ-cyclodextrin, 2.3% mannitol and 50 mM glycine and 20 mg/mL TSC, reconstituted in sterile water. Sterile saline (0.9%) was added as a diluent in these studies in order to achieve the desired dosages. The same dose (937 μg/kg) was administered to all rats."}, "[6]": {"assay": "Stability of TSC in formulation versus pH", "conditions": "aqueous formulation"}, "[7]": {"assay": "Oral administration, plasma concentrations", "format": "in vivo, rats", "conditions": "with γ-cyclodextrin", "method": "PE-50 tubing was used to deliver formulated TSC into the stomachs of rats, and plasma concentrations were measured after that. Rats were fasted for 24 hours prior to each experiment. Water was given ad libitum and coprophagy was prevented by using cages with wire-mesh floors. One study involved rats that were allowed food ad libitum after TSC administration and another study involved rats in which food was withheld after TSC administration."}, "[8]": {"assay": "Preclinical study of myocardial infarction", "format": "in vivo", "conditions": "injected intravenously"}, "[9]": {"test_system": "rats subjected to hemorrhagic shock", "assay": "Treatment of hemorrhagic shock", "format": "in vivo", "conditions": "for treatment of hemorrhagic shock: rats"}, "[10]": {"conditions": "pulmonary, formulated drug product, 937 μg/kg"}}, "note": "“And” between values parts separate entries of the source, which are not always exact repeats. Identical values can stand only once. “Also recorded” adds a separate entry of the source. Like-named read-outs stand apart in the source and are kept apart here.", "data": [{"smiles": "CC(/C=C/C=C(\\C)C(=O)O)=C\\C=C\\C=C(C)\\C=C\\C=C(/C)C(=O)O", "note": "[crocetin]", "values": [{"measurement": "solubility in water", "setting": "[1]", "value": "only sparingly soluble in water"}]}, {"smiles": "CC(/C=C/C=C(\\C)C(=O)[O-])=C\\C=C\\C=C(C)\\C=C\\C=C(/C)C(=O)[O-].[Na+].[Na+]", "note": "[TSC, trans sodium crocetinate]", "values": [{"measurement": "solubility", "setting": "[2]; 0.0005 M acetic acid solution, aqueous buffer, thermodynamic from solid, read-out: Maximum solubility", "value": "6000 to 6500", "unit": "µg/mL"}, {"measurement": "dissolution in acetic acid", "setting": "[2]; 0.001 M acetic acid", "value": "doesn't dissolve"}, {"measurement": "TSC content of aqueous solution", "setting": "[2]; TSC and gamma-cyclodextrin", "value": "≤ 44 milligrams of TSC per ml of solution"}, {"measurement": "TSC content of solution", "setting": "[2]; formulated with cyclodextrin and mannitol", "value": "over 20 mg TSC/ml of solution"}, {"measurement": "solubility in water", "setting": "[2]; water", "value": "soluble in water"}, {"measurement": "bioavailability", "setting": "[3]; rat, plasma, im, 3347 μg/kg body weight, rats, intramuscular 3347 μg/kg with 14 mg 2-hydroxypropyl-β-cyclodextrin per kg", "value": 27, "unit": "%"}, {"measurement": "peak plasma TSC concentration", "setting": "[3]; rats, intramuscular 3347 μg/kg with 14 mg 2-hydroxypropyl-β-cyclodextrin per kg", "value": 4.8, "unit": "µg/mL"}, {"measurement": "absorption via intramuscular route", "setting": "[3]; simply dissolved in de-ionized water", "value": "not absorbed"}, {"measurement": "absorption via intramuscular route", "setting": "[3]; with γ-cyclodextrin", "value": "successful absorption into the systemic circulation; also recorded: absorbed into the blood stream"}, {"measurement": "optimal dosage", "setting": "[4]; Study A, i.v. 5 days, 2 Gy irradiation 45 minutes post-injection", "value": 0.18, "unit": "mg/kg"}, {"measurement": "dosages that worked equally well", "setting": "[4]; Study B, i.v. 5 days, 2 Gy irradiation 45 minutes post-injection", "value": "0.07 mg/kg and 0.14 mg/kg"}, {"measurement": "effect on tumor growth", "setting": "[4]; TSC alone, no irradiation, FIG. 3", "value": "does not appreciably affect tumor growth"}, {"measurement": "pulmonary absorption without cyclodextrin", "setting": "[5]; TSC in pH'd di-water", "value": "successful absorption into the blood stream"}, {"measurement": "effect of larger injection volume of the same dose on bioavailability", "setting": "[5]; pulmonary, 937 μg/kg", "value": "greater bioavailability"}, {"measurement": "effect of γ-cyclodextrin on absorption into the systemic circulation", "setting": "[5]; [10]", "value": "enhances absorption"}, {"measurement": "effect of γ-cyclodextrin on plasma clearance", "setting": "[5]; [10]", "value": "increasing plasma clearance"}, {"measurement": "time to reach the maximum plasma concentration", "setting": "[5]; rats, pulmonary", "value": "< 5", "unit": "min"}, {"measurement": "stability versus pH", "setting": "[6]", "value": "more stable at higher pHs"}, {"measurement": "effect of γ-cyclodextrin on oral absorption", "setting": "[7]", "value": "enhances absorption"}, {"measurement": "effect on ventricular fibrillation", "setting": "[8]", "value": "prevented ventricular fibrillation"}, {"measurement": "effect on tachycardia", "setting": "[9]; rats subjected to hemorrhagic shock", "value": "reduce tachycardia"}, {"measurement": "treatment of hemorrhagic shock", "setting": "[9]; intramuscular injection", "value": "successfully treated"}, {"measurement": "treatment of hemorrhagic shock", "setting": "[9]; pulmonary route", "value": "successfully treated"}]}, {"smiles": "CC(/C=C/C=C(\\C)C(=O)O[C@@H]1O[C@H](CO[C@@H]2O[C@H](CO)[C@@H](O)[C@H](O)[C@H]2O)[C@@H](O)[C@H](O)[C@H]1O)=C\\C=C\\C=C(C)\\C=C\\C=C(/C)C(=O)O[C@@H]1O[C@H](CO[C@@H]2O[C@H](CO)[C@@H](O)[C@H](O)[C@H]2O)[C@@H](O)[C@H](O)[C@H]1O", "note": "[crocin]", "values": [{"measurement": "solubility in water", "setting": "[1]", "value": "significant solubility in water"}]}, {"smiles": "CCOC(=O)/C(C)=C/C=C/C(C)=C/C=C/C=C(C)/C=C/C=C(\\C)C(=O)OCC", "note": "[Compound E, Diethyl 2,6,11,15-Tetramethyl-hexadeca-2E,4E,6E,8E,10E,12E,14E-heptaene-1,16-diotate]", "values": [{"measurement": "solubility", "setting": "[2]; in water and in THF", "value": "poorly soluble"}]}]}
